# From patent US9981969B2, “Imidazole derivatives and methods of use thereof for improving the pharmacokinetics of a drug” (MERCK SHARP & DOHME CORP., priority 2013, dated 2018)
# Assays:
# human CYP11B1 = biological target: T1, human CYP11B1 (Homo sapiens, UniProt P15538); test: IC50 vs CYP11B1 by measurement of cortisol synthesis in V79 cells; type: cell-based; details: V79 cells expressing human CYP11B1, 1500 nM RSS, cortisol HTRF
# T1 construct: expressed in transfected cells
# T1 sequence (P15538 25-503): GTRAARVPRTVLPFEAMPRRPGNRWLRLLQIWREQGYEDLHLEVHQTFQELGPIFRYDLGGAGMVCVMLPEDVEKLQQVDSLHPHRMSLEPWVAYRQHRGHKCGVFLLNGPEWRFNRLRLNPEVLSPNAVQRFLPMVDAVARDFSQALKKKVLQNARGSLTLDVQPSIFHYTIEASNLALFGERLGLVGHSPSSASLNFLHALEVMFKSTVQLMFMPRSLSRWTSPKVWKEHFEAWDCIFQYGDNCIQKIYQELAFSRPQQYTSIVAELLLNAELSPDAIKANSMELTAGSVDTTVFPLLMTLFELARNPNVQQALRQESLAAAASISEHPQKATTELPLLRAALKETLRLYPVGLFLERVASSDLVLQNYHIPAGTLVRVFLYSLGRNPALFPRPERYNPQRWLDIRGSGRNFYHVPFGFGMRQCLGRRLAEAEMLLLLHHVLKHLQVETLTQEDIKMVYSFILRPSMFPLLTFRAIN
# In short: (§1)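 V79 cells stably expressing CYP11B1 or CYP11B2 were treated with test compound at 10 concentrations (e.g. 10000 down to 0.5 nM), with 1500 nM RSS (CYP11B1) or 750 nM DOC (CYP11B2) as substrate. After ~15 h at RT in the dark, supernatant cortisol/aldosterone was measured by HTRF and back-calculated from a standard curve. IC50 was taken as the inflection point of a four-parameter fit.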
# CYP1A2 = biological target: T2, CYP1A2 (Homo sapiens, UniProt P05177); test: Cocktail assay for CYPs in human liver microsomes, phenacetin O-deethylation (1A2); type: biochemical; details: 10 μM phenacetin, 10 min at 37° C.
# T2 construct: 0.1 mg/mL protein human liver microsomes (BD Gentest); tissue BD Gentest; host or cells: human liver microsomes
# T2 sequence (P05177 1-516): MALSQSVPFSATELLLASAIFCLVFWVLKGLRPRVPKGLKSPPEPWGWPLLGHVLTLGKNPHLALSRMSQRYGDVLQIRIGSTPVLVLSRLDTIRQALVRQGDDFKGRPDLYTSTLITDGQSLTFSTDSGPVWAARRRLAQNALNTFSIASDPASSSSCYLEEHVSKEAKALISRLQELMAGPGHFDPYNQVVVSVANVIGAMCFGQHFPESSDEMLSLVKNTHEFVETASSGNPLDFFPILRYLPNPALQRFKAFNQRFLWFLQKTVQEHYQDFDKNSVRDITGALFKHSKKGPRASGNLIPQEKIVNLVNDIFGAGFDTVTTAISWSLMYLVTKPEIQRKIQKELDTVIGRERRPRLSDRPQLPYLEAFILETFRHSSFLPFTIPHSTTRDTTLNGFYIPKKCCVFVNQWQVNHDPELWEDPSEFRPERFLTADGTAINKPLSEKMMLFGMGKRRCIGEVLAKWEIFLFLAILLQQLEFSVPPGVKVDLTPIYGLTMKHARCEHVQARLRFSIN
# In short: (§2)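 Pooled human liver microsomes (0.1 mg/mL) with substrate cocktail (10 μM phenacetin, 5 μM diclofenac, 30 μM mephenytoin, 5 μM dextromethorphan), 1 mM NADPH, pH 7.4 phosphate, 10 min at 37 °C. Metabolites by LC/MS/MS; IC50 from % inhibition at 6 concentrations up to 10 μM.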
# CYP2D6 = biological target: T3, CYP2D6 (Homo sapiens, UniProt P10635); test: Cocktail assay for CYPs in human liver microsomes, dextromethorphan O-demethylation (2D6); type: biochemical; details: 5 μM dextromethorphan, 10 min at 37° C.
# T3 construct: 0.1 mg/mL protein human liver microsomes (BD Gentest); tissue BD Gentest; host or cells: human liver microsomes
# T3 sequence (P10635 whole entry): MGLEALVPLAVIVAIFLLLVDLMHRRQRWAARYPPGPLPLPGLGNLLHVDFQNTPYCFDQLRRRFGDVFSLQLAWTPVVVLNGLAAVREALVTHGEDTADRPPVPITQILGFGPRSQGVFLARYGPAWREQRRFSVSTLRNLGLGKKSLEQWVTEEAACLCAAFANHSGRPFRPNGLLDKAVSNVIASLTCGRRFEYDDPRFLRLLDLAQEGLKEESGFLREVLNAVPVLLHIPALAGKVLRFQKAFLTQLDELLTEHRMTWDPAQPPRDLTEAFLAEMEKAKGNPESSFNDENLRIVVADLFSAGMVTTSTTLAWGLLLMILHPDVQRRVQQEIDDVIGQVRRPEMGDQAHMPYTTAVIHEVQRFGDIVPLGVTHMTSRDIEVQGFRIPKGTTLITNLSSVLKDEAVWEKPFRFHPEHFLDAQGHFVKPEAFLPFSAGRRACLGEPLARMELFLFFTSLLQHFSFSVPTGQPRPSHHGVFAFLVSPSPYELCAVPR
# In short: as §2
# human CYP11B2 = biological target: T4, human CYP11B2 (Homo sapiens, UniProt P19099); test: IC50 vs CYP11B2 by measurement of aldosterone synthesis in V79 cells; type: cell-based; details: V79 cells expressing human CYP11B2, 750 nM DOC, aldosterone HTRF
# T4 construct: expressed in transfected cells
# T4 sequence (P19099 25-503): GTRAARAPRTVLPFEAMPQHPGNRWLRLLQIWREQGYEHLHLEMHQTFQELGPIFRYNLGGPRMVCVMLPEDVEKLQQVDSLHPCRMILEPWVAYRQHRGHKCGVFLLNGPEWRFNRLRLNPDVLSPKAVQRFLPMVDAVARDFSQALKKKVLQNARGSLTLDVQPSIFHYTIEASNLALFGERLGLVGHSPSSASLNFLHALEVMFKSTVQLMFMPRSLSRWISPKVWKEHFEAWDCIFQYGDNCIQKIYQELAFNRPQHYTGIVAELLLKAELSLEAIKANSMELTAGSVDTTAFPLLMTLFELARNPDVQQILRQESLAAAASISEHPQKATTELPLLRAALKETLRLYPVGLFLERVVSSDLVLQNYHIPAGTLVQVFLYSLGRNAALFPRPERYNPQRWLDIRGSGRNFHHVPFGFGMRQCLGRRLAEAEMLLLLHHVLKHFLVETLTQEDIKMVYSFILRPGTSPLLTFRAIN
# In short: as §1
# CYP3A4 = biological target: T5, CYP3A4 (Homo sapiens, UniProt P08684); test: Cocktail assay for CYPs in human liver microsomes, midazolam 1′-hydroxylation (3A4); type: biochemical; details: 2 μM midazolam, 10 min at 37° C.
# T5 construct: 0.1 mg/mL protein human liver microsomes (BD Gentest); tissue BD Gentest; host or cells: human liver microsomes
# T5 sequence (P08684 whole entry): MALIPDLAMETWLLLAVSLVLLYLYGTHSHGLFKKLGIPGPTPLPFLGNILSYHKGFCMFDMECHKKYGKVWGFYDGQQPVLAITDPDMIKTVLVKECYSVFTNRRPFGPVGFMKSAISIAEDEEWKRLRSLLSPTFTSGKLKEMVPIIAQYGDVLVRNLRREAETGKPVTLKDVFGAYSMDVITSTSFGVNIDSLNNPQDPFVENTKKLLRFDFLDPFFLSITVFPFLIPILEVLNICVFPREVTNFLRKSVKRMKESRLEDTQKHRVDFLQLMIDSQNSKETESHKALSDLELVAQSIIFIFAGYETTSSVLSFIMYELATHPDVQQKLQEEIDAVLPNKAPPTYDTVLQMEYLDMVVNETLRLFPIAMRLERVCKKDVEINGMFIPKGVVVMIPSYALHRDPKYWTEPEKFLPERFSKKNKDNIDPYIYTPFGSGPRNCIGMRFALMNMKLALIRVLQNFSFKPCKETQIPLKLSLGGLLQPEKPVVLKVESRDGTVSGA
# In short: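 CYP3A4 inhibition was measured in human liver microsomes (0.1 mg/mL protein) with 2 μM midazolam as the probe substrate, 1 mM NAPDH, 3.3 mM MgCl2 and 100 mM potassium phosphate buffer (pH 7.4), incubated 10 min at 37° C. After acetonitrile treatment, metabolite was quantified by LC/MS/MS against a tolbutamide internal standard. Percent inhibition at 6 concentrations gave IC50 by SigmaPlot non-linear regression.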
# CYP2C9 = biological target: T6, CYP2C9 (Homo sapiens, UniProt P11712); test: Cocktail assay for CYPs in human liver microsomes, diclofenac 4′-hydroxylation (2C9); type: biochemical; details: 5 μM diclofenac, 10 min at 37° C.
# T6 construct: 0.1 mg/mL protein human liver microsomes (BD Gentest); tissue BD Gentest; host or cells: human liver microsomes
# T6 sequence (P11712 whole entry): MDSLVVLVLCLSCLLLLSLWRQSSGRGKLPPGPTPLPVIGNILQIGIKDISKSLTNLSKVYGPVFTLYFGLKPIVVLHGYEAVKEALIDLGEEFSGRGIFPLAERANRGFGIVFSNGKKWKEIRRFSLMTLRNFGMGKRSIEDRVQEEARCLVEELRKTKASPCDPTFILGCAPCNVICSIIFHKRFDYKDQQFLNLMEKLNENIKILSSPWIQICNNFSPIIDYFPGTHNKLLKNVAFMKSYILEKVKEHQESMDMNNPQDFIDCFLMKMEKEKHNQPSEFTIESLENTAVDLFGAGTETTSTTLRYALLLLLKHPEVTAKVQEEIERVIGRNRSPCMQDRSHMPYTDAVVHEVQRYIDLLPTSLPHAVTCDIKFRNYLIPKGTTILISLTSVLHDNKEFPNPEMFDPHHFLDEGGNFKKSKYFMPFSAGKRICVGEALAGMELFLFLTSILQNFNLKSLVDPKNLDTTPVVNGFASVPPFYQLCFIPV
# In short: as §2
# CYP2C19 = biological target: T7, CYP2C19 (Homo sapiens, UniProt P33261); test: Cocktail assay for CYPs in human liver microsomes, mephenytoin 4′-hydroxylation (2C19); type: biochemical; details: 30 μM mephenytoin, 10 min at 37° C.
# T7 construct: 0.1 mg/mL protein human liver microsomes (BD Gentest); tissue BD Gentest; host or cells: human liver microsomes
# T7 sequence (P33261 whole entry): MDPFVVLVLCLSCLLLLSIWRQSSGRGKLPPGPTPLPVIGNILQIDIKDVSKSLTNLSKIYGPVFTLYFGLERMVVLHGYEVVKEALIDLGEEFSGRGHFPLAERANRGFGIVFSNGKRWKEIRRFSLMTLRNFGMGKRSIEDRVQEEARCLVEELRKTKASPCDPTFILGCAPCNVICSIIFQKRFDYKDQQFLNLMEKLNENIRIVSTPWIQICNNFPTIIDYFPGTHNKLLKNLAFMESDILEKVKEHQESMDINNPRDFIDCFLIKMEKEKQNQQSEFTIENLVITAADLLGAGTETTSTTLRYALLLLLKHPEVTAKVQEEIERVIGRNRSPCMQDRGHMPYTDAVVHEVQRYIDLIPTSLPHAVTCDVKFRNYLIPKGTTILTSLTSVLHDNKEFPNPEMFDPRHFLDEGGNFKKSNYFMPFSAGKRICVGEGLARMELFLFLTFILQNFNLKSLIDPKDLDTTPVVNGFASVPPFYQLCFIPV
# In short: as §2
IC50 (human CYP11B1),IC50 (CYP1A2),IC50 (CYP2D6),IC50 (human CYP11B2),IC50 (CYP3A4),IC50 (CYP2C9),IC50 (CYP2C19),SMILES
> 50 µM,> 10 µM,> 10 µM,> 50 µM,0.0077 µM,> 10 µM,> 10 µM,C[C@@H](c1ccccc1CN1CCC(F)CC1)n1cncc1C(=O)N1CCC2NCCO[C@@H]2C1 (some centres unmarked) [Compound 45]
45.3 µM,> 10 µM,9.25 µM,9.02 µM,0.0085 µM,> 10 µM,> 10 µM,CC(C)c1ccccc1[C@H](C)n1cncc1C(=O)N1CCC2NCCO[C@@H]2C1 (some centres unmarked) [Compound 47]
6.03 µM,> 10 µM,≥ 10 µM,36.3 µM,0.0037 µM,> 10 µM,9.54 µM,C[C@@H](c1ccccc1-c1ccc(F)cc1)n1cncc1C(=O)N1CCC(F)(CN2CCOCC2)CC1 [Compound 49]
20.8 µM,> 10 µM,> 10 µM,> 50 µM,0.0048 µM,> 10 µM,> 10 µM,C[C@@H](c1ccccc1-c1ccc(F)cc1)n1cncc1C(=O)N1CCC2NC(=O)COC2(C)C1 (some centres unmarked) [Compound 51]
3.93 µM,> 10 µM,> 10 µM,> 50 µM,0.0032 µM,> 10 µM,> 10 µM,C[C@@H](c1ccccc1-c1ccc(F)cc1)n1cncc1C(=O)N1CCC[C@H]2OCCN[C@@H]2C1 [Compound 52]
16.4 µM,> 10 µM,> 10 µM,> 50 µM,0.011 µM,> 10 µM,> 10 µM,C[C@@H](c1ccccc1-c1ccc(F)cc1)n1cncc1C(=O)N1CCC[C@@H]2OCCN[C@H]2C1 [Compound 53]

SMILES,IC50 (human CYP11B1),IC50 (CYP1A2),IC50 (CYP2D6),IC50 (human CYP11B2),IC50 (CYP3A4),IC50 (CYP2C9),IC50 (CYP2C19)
C[C@@H](c1ccccc1C(C)(C)F)n1cncc1C(=O)N1CCC2NCCO[C@@H]2C1 (some centres unmarked) [Compound 46],> 50 µM,> 10 µM,5.8 µM,23.1 µM,0.0109 µM,> 10 µM,> 10 µM
C[C@@H](c1ccccc1C1CCCC1)n1cncc1C(=O)N1CCC2NCCO[C@@H]2C1 (some centres unmarked) [Compound 48],11.3 µM,> 10 µM,> 10 µM,15.5 µM,0.0055 µM,> 10 µM,> 10 µM
